# Assays:
# [1] = system: human pluripotent stem cells; assay: Omission of medium components, Oct-4 expression after seven days; assay type: cell-based; conditions: for effect of omitting constituent on percentage of undifferentiated cells: Oct-4 expression
# Description: While a medium with all of the above constituents is sufficient and is preferred, not all of the components are necessary for the successful culture of human pluripotent stem cells. Depending on the amount of differentiated cells one is willing to tolerate, some of the components of the medium can be omitted, particularly if the medium is only used for a few passages. To further explore which constituents might be omitted, human pluripotent stem cells were cultured on variants of the above medium with differing components omitted. Two hundred thousand cells were plated and grown for seven days on each experimental medium, two wells per treatment. The cells were then assayed for expression of the transcription factor Oct-4, a recognized marker of undifferentiated cells.
# The data from that experiment are presented graphically in FIG. 7, where the numbers of Oct-4 expressing cells in each experimental medium are presented as a fraction of that from the preferred medium TeSR1. […] The difference between the percentage of undifferentiated cells and the omitted constituent is quantitative. Regardless of the omitted constituent, the medium does work, at least to some degree for limited cell passages, without each of the omitted components.
# human ES cells = assay: TeSR1 minus individual components, growth curve and FACS over three passages; assay type: cell-based
# Description: FIG. 4 is a graphical representation of data showing that the medium described here results in robust growth of pluripotent stem cells in culture. Specifically, what is shown is growth curve analysis for human ES cells cultured in complete TeSR1 (positive control), and TeSR1 minus the following individual components: TGFβ, pipecolic acid (PA), GABA, LiCl and bFGF, and TeSR1 minus all five growth factors (TeSR1—ALL or negative control); 3×10^5 cells were plated at day 0 of each passage.
# Triplicate wells of resulting cells were analyzed on day 6 of passage 3 by FACS for human ES cell markers. All results are presented for the H1 cell line; similar results were obtained for cell lines H7, H9 and H14.
# Inventors used human ES cell lines H1, H7, H9 and H14 (Thomson, J. A. et al. Science 282, 1145-1147 (1998)) in a program of human ES cell media optimization that included modifications to the physiochemical environment, growth factor supplements and matrix components. To accomplish this, human ES cell lines H1, H7, H9, and H14 were cultured on Matrigel (Becton Dickinson) in fibroblast-conditioned medium as previously described (Xu, C. et al. Nature Biotechnology 19, 971-974 (2001)). Cells were transitioned into test media by direct passage from conditioned medium. Cultures of human ES cells were routinely passaged in clumps at approximately weekly intervals onto Matrigel or human matrix-coated plates by exposure to dispase (2.0 or 0.5 mg/ml respectively: Invitrogen). Following 7 minutes of dispase exposure, cells were rinsed 3 (three) times on the plate with medium, followed by gentle scraping to collect. Colonies were further broken up by gentle pipetting and then plated. The human matrix-coated plates were composed of 10 μg/cm^2 human collagen IV (Sigma or Becton Dickinson), 0.2 μg/cm^2 human vitronectin (Sigma), 5 μg/cm^2 human fibronectin (Sigma or Becton Dickinson) and 5 μg/cm^2 human laminin (Sigma). During the course of these studies we successfully used 4 lots of fibronectin, 2 lots of collagen, 3 lots of laminin, and 3 lots of vitronectin. For growth curve proliferation studies, 3-5×10^5 cells were plated on Day 0 of each passage into conditioned medium, TeSR1 or TeSR1 minus the following components: TGFβ, PA, GABA, LiCl and bFGF. Cells were cultured for three passages. Cells were harvested on Day 2-3 and Day 6-7 and counted using a Trypan Blue exclusion assay. At the end of passage three, cells were individualized by treatment with trypsin/EDTA and were analyzed by FACS for human ES cell markers Oct-4, SSEA-4, Tra 1-60 and Tra 1-81 as subsequently described.
# ES03-DL1-K hES cells = assay: Cloning efficiency at different BME concentrations in TeSR1; assay type: cell-based, human
# Description: FIG. 15 illustrates the growth of hES cells grown in mTeSR1 with five different concentrations of beta mercaptoethanol (βME). ES03-DL1-K were grown for one to five passages, visualized (a), counted to determine proliferation and cloning efficiency (b), and stained using […] for Oct-4 and SSEA-4 to identify differentiation status of the cells (c). The treatment concentrations consisted of 0, 1.75, 3.5, 7, and 14 μL βME/500 mL of total TeSR1 media. Results shown are the mean from growth in 3 wells/treatment. This experiment was repeated multiple times both with ES03-DL1-K and H9-WA09 cells with similar results.
# Specifically, to optimize the physiochemical environment, human ES cells with an EGFP reporter gene and a neomycin resistance cassette under control of the endogenous Oct-4 gene were utilized for the physiochemical optimization assays. […] At the end of the growth period, cells from independent wells were individualized by treatment with trypsin/EDTA, counted and subjected to FACS analysis as subsequently described. To determine cloning efficiency of the cells, resulting colonies were stained with BCIP/NTB alkaline phosphatase substrate kit IV (Vector Laboratories) and counted. Percentages were determined by dividing colony number obtained by the initial number of cells plated. […]
Compound,effect of omitting constituent on percentage of undifferentiated cells [1],effect of removal of the factor from TeSR1 on culture performance (human ES cells),effect of removal from TeSR1 on total cell number and percentage of cells expressing ES cell markers (human ES cells),"necessity of component (Oct-4 expressing cells as fraction of TeSR1) ([1]; short-term culture, high levels of FGF)","cloning efficiency of the cells (ES03-DL1-K hES cells; 0 and 1.75 μL BME/500 mL of total media, modified TeSR1)",increase in cloning efficiency (ES03-DL1-K hES cells; BME omitted or less than about 0.1 mM in TeSR1 vs same medium with higher than about 0.1 mM BME)
"NCCCC(=O)O [GABA, gamma-aminobutyric acid]",increased percentages of undifferentiated cells,significantly decreased some parameter of culture performance,,,,
"O=C(O)C1CCCCN1 (stereo not shown) [PA, pipecolic acid]",increased percentages of undifferentiated cells,significantly decreased some parameter of culture performance,,,,
"bFGF: fibroblast growth factor, also referred to as FGF2",increased percentages of undifferentiated cells,significantly decreased some parameter of culture performance,consistently decreased,,,
TGFβ: transforming growth factor beta,,significantly decreased some parameter of culture performance,,least necessary component,,
"[Cl-].[Li+] [LiCl, lithium chloride]",increased percentages of undifferentiated cells,significantly decreased some parameter of culture performance,,,,
"OCCS [BME, β-mercaptoethanol]",,,,,large increases in cloning efficiency,at least 10%
